Source: patent publication US9643952B2, “Pyridone compound” (KYOWA HAKKO KIRIN CO., LTD., priority 2012, dated 2017)

Tested on: dinitrofluorobenzene-induced auricle edema reaction
Assay: Suppressive action on dinitrofluorobenzene-induced auricle edema reaction in mouse
Format: in vivo
Conditions: for auricle edema suppression rate (%): BALE/c mice (female), test compound 1% (w/v %) in acetone applied to front and back of auricle (total 20 μL) 1 hr before and 3 hr after induction, auricle thickness 24 hr after induction; for suppressive action on auricle edema response (in words): BALE/c mice, 1% (w/v %) in acetone applied to auricle
Protocol: BALE/c mice (female, supplied by CHARLES RIVER LABORATORIES JAPAN, INC.) were purchased at the age of 5 weeks. After quarantine and acclimation, mice showing smooth body weight increase and free of abnormality in appearance were used and the test was started at the age of 7 weeks. The mice were housed in a breeding room at room temperature 19-25° C., humidity 30-70%, 12 hr lighting per day (7 a.m.-7 p.m.) with 3 mice in each plastic gauge, and bred on with free ingestion of a commercially available solid feed and water. Two days before the test, the abdomen of the BALE/c mice was shaved, and the mice were immunized by applying 100 μL of a solution {concentration 0.5% [weight (w)/volume (v) %]} of dinitrofluorobenzene (manufactured by Nacalai Tesque) in acetone (manufactured by Wako Pure Chemical Industries, Ltd.) to the shaved part. The reaction was induced by applying dinitrofluorobenzene-acetone solution [concentration 0.2% (w/v %)] to the front and the back of auricle (10 μL to each, total 20 μL) on day 5 after the immunization. A test compound dissolved in acetone at concentration of 1% (w/v %) was administered by applying same to the front and the back of auricle (10 μL to each, total 20 μL) 1 hr before and 3 hr after induction of the reaction. After application, the applied part was air-dried with a dryer. The group applying administered with the test compound was taken as a test compound administration group, and the group applying administered with acetone as a solvent instead of the test compound was taken as a solvent administration group. Also, the group free of immunization and reaction induction but applying administered with acetone instead of the test compound was taken as a normal group. The thickness of auricle was measured using a dial thickness gauge (G-1A manufactured by OZAKI MFG. CO., LTD.) immediately before and 24 hr after induction of the reaction, and the difference thereof was taken as auricle edema. The suppression rate (%) of auricle edema was calculated according to the following formula. [formula]

| Structure (SMILES) | auricle edema suppression rate (%) | suppressive action on auricle edema response (in words) |
| --- | --- | --- |
| Cc1cc(C#N)ccc1Nc1c(C(=O)N2CCC(c3ccc(F)cc3)CC2)cn(C)c(=O)c1Cl [Compound 100, 4-{3-chloro-5-[4-(4-fluorophenyl)piperidine-1-carbonyl]-1-methyl-2-oxo-1,2-dihydropyridin-4-ylamino}-3-methylbenzonitrile] | 53% | showed a suppressive action on auricle edema response |
| Cc1c(Nc2ccc(F)cc2F)c(C(=O)N2CCC(c3ccc(F)cc3)CC2)cn(C)c1=O [Compound 125, 4-(2,4-difluorophenylamino)-5-[4-(4-fluorophenyl)piperidine-1-carbonyl]-1,3-dimethylpyridin-2(1H)-one] | 47% | showed a suppressive action on auricle edema response |
| COCCn1cc(C(=O)N2CCC(c3ccc(F)cc3)CC2)c(Nc2ccc(F)cc2F)c(Cl)c1=O [Compound 144, 3-chloro-4-(2,4-difluorophenylamino)-5-[4-(4-fluorophenyl)piperidine-1-carbonyl]-1-(2-methoxyethyl)pyridin-2(1H)-one] | 32% |  |
| Cn1cc(C(=O)N2CCC(c3ccc(F)cc3)CC2)c(Nc2ccc(S(C)(=O)=O)cc2F)c(Cl)c1=O [Compound 145, 3-chloro-4-[2-fluoro-4-(methylsulfonyl)phenylamino]-5-[4-(4-fluorophenyl)piperidine-1-carbonyl]-1-methylpyridin-2(1H)-one] |  | showed a suppressive action on auricle edema response |
| Cc1ccc(Cl)cc1Nc1c(C(=O)N2CCC(c3ccc(F)cc3)CC2)cn(OCCO)c(=O)c1Cl [Compound 204, 3-chloro-4-(5-chloro-2-methylphenylamino)-5-[4-(4-fluorophenyl)piperidine-1-carbonyl]-1-(2-hydroxyethoxyl)pyridin-2(1H)-one] | 41% | showed a suppressive action on auricle edema response |
| COCCn1cc(C(=O)N2CCC(c3ccc(F)cc3)CC2)c(Nc2ccc3scnc3c2)c(Cl)c1=O [Compound 206, 4-(benzo[d]thiazol-5-ylamino)-3-chloro-5-[4-(4-fluorophenyl)piperidine-1-carbonyl]-1-(2-methoxyethyl)pyridin-2(1H)-one] | 30% | showed a suppressive action on auricle edema response |
